Experimental data published in patent US12157730B2, “Heteroaryl derivative, method for producing same, and pharmaceutical composition comprising same as effective component” (VORONOI INC., priority 2019, dated 2024).

These compounds were tested against T1, Ba/F3 cell EGFR Exon20 ins NPH (Homo sapiens, UniProt P00533, INS773NPH) (assay: Ba/F3 cell proliferation suppression, EGFR Exon20 ins NPH). Conditions: GI50 class; Ba/F3 cell line with NPH inserted at Exon20 of EGFR; 72 hours.
T1 construct: expressed in transfected cells; host or cells: Ba/F3
Type: cell-based
Summary of the method: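 Cells were seeded 24 h before dosing and then treated for 72 hours with compound at final concentrations of 0.3 nM to 50 um. Live cells were measured by CellTiter-Glo luminescence, and GI50 values were derived from growth ratio relative to control across three repeats.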

Compound | Ba/F3 (NPH) Activity
C=CC(=O)Nc1cc(Nc2cc(N3OCC[C@@H]3c3cccc(F)c3F)ncn2)c(OC)cc1N1CCC(N2CCN(C)[C@H](C)C2)CC1 [compound 336, N-(5-((6-((R)-3-(2,3-difluorophenyl)isoxazolidine-2-yl)pyrimidine-4-yl)amino)-2-(4-((R)-3,4-dimethylpiperazine-1-yl)piperidine-1-yl)-4-methoxyphenyl) acrylamide] | A (GI50 < 50 nM)
C=CC(=O)Nc1cc(Nc2cc(N3OCC[C@@H]3c3ccc(F)cc3F)ncn2)c(OC)cc1N1CCC(N(C)CCOC)CC1 [compound 387, N-(5-((6-((R)-3-(2,4-difluorophenyl)isoxazolidine-2-yl)pyrimidine-4-yl)amino)-4-methoxy-2-(4-((2-methoxyethyl)(methyl)amino)piperidine-1-yl)phenyl)acrylamide] | A (GI50 < 50 nM)
C=CC(=O)Nc1cc(Nc2cc(N3OCC[C@@H]3c3c(F)ccc(F)c3F)ncn2)c(OC)cc1N1CCC(N2CCOCC2)CC1 [compound 632, N-(4-methoxy-2-(4-morpholinopiperidine-1-yl)-5-((6-((R)-3-(2,3,6-trifluorophenyl)isoxazolidine-2-yl)pyrimidine-4-yl)amino)phenyl)acrylamide] | A (GI50 < 50 nM)
C=CC(=O)Nc1cc(Nc2cc(N3OCC[C@@H]3c3cc(F)cc(F)c3)ncn2)c(OC)cc1N1CCC(N2C[C@@H](C)N(C3CC3)C[C@@H]2C)CC1 [Example 108, N-(2-(4-((2S,5R)-4-cyclopropyl-2,5-dimethylpiperazine-1-yl)piperidine-1-yl)-5-((6-((R)-3-(3,5-difluorophenyl)isoxazolidine-2-yl)pyrimidine-4-yl)amino)-4-methoxyphenyl) acrylamide] | A (GI50 < 50 nM)
C=CC(=O)Nc1cc(Nc2cc(N3OCC[C@@H]3c3ccc(Cl)cc3F)ncn2)c(OC)cc1N1CCC(N2CCN(C(C)=O)CC2)CC1 [compound 375, N-(2-(4-(4-acetylpiperazine-1-yl)piperidine-1-yl)-5-((6-((R)-3-(4-chloro-2-fluorophenyl)isoxazolidine-2-yl)pyrimidine-4-yl)amino)-4-methoxyphenyl) acrylamide] | A (GI50 < 50 nM)
C=CC(=O)Nc1cc(Nc2cc(N3OCC[C@@H]3c3ccc(C)nc3)ncn2)c(OC)cc1N(C)CCOC [Example 223, N-(4-methoxy-2-((2-methoxyethyl) (methyl)amino)-5-((6-((R)-3-(6-methylpyridine-3-yl)isoxazolidine-2-yl)pyrimidine-4-yl)amino)phenyl)acrylamide] | B (50 nM ≤ GI50 < 500 nM)
C=CC(=O)Nc1cc(Nc2cc(N3OCC[C@@H]3c3ccc(F)c(Cl)c3F)ncn2)c(OC)cc1N1CCC(N2CCOCC2)CC1 [compound 606, N-(5-((6-((R)-3-(3-chloro-2,4-difluorophenyl)isoxazolidine-2-yl)pyrimidine-4-yl)amino)-4-methoxy-2-(4-morpholinopiperidine-1-yl)phenyl)acrylamide] | A (GI50 < 50 nM)
N-(5-((6-((R)-3-(3,4- difluorophenyl) isoxazolidine-2-yl) pyrimidine-4-yl)amino)- 2-(4-((S)-3- (dimethylamino) pyrolidine-1-yl) piperidine-1-yl)-4- methoxyphenyl) acrylamide [compound 500] | A (GI50 < 50 nM)
C=CC(=O)Nc1cc(Nc2cc(N3OCC[C@@H]3Cc3ccccc3)ncn2)c(OC)cc1N1CCN(C2CCN(C)CC2)CC1 [compound 970, N-(5-((6-((S)-3-benzylisoxazolidine-2-yl)pyrimidine-4-yl)amino)-4-methoxy-2-(4-(1-methylpiperidine-4-yl)piperazine-1-yl)phenyl)acrylamide] | A (GI50 < 50 nM)

More lines, now with the values ahead:

Ba/F3 (NPH) Activity | Compound
A (GI50 < 50 nM) | C=CC(=O)Nc1cc(Nc2cc(N3OCC[C@@H]3c3cccc(F)c3)ncn2)c(OC)cc1N1CCC(N2C[C@@H]3C[C@H]2CN3CC)CC1 [compound 835, N-(2-(4-((1S,4S)-5-ethyl-2,5-diazabicyclo[2.2.1]heptane-2-yl)piperidine-1-yl)-5-((6-((R)-3-(3-fluorophenyl)isoxazolidine-2-yl)pyrimidine-4-yl)amino)-4-methoxyphenyl) acrylamide]
A (GI50 < 50 nM) | C=CC(=O)Nc1cc(Nc2cc(N3OCC[C@@H]3c3cccc(C(F)(F)F)c3)ncn2)c(OC)cc1N1CCC(N2CCN(C)CC2)CC1 [compound 453, N-(4-methoxy-2-(4-(4-methylpiperazine-1-yl)piperidine-1-yl)-5-((6-((R)-3-(3-(trifluoromethyl)phenyl)isoxazolidine-2-yl)pyrimidine-4-yl)amino)phenyl)acrylamide]
A (GI50 < 50 nM) | C=CC(=O)Nc1cc(Nc2cc(N3OCC[C@@H]3c3cc(F)ccc3F)ncn2)c(OC)cc1N1CCC(N2CCO[C@H](C)C2)CC1 [compound 822, N-(5-((6-((R)-3-(2,5-difluorophenyl)isoxazolidine-2-yl)pyrimidine-4-yl)amino)-4-methoxy-2-(4-((R)-2-methylmorpholino)piperidine-1-yl)phenyl) acrylamide]
A (GI50 < 50 nM) | C=CC(=O)Nc1cc(Nc2cc(N3OCC[C@@H]3c3cccc(F)c3)ncn2)c(OC)cc1N1C[C@H]2C[C@@H]1CO2 [compound 833, N-(2-((1R,4R)-2-oxa-5-azabicyclo[2.2.1]heptane-5-yl)-5-((6-((R)-3-(3-fluorophenyl)isoxazolidine-2-yl)pyrimidine-4-yl)amino)-4-methoxyphenyl) acrylamide]
A (GI50 < 50 nM) | C=CC(=O)Nc1cc(Nc2cc(N3OCC[C@@H]3c3cccc(C)c3F)ncn2)c(OC)cc1N1CCC(N2C[C@H]3C[C@@H]2CO3)CC1 [compound 320, N-(2-(4-((1R,4R)-2-oxa-5-azabicyclo[2.2.1]heptane-5-yl)piperidine-1-yl)-5-((6-((R)-3-(2-fluoro-3-methylphenyl)isoxazolidine-2-yl)pyrimidine-4-yl)amino)-4-methoxyphenyl) acrylamide]
B (50 nM ≤ GI50 < 500 nM) | C=CC(=O)Nc1cc(Nc2cc(N3OCC[C@@H]3c3cccc(Cl)c3)ncn2)c(OC)cc1N1C[C@@H]2C[C@H]1CO2 [compound 466, N-(2-((1S,4S)-2-oxa-5-azabicyclo[2.2.1]heptane-5-yl)-5-((6-((R)-3-(3-chlorophenyl)isoxazolidine-2-yl)pyrimidine-4-yl)amino)-4-methoxyphenyl) acrylamide]
A (GI50 < 50 nM) | C=CC(=O)Nc1cc(Nc2cc(N3OCC[C@@H]3c3ccc(Cl)cc3F)ncn2)c(OC)cc1N1CCC(N2CCOCC2)CC1 [compound 455, N-(5-((6-((R)-3-(4-chloro-2-fluorophenyl)isoxazolidine-2-yl)pyrimidine-4-yl)amino)-4-methoxy-2-(4-morpholinopiperidine-1-yl)phenyl)acrylamide]
A (GI50 < 50 nM) | C=CC(=O)Nc1cc(Nc2cc(N3OCC[C@@H]3c3cccc(Cl)c3F)ncn2)c(OC)cc1N1CCC(N2CCOCC2)CC1 [compound 788, N-(5-((6-((R)-3-(3-chloro-2-fluorophenyl)isoxazolidine-2-yl)pyrimidine-4-yl)amino)-4-methoxy-2-(4-morpholinopiperidine-1-yl)phenyl)acrylamide]
A (GI50 < 50 nM) | C=CC(=O)Nc1cc(Nc2cc(N3OCC[C@@H]3c3ccc(Cl)cc3F)ncn2)c(OC)cc1N1CCC(N2CCN(CC)CC2)CC1 [compound 409, N-(5-((6-((R)-3-(4-chloro-2-fluorophenyl)isoxazolidine-2-yl)pyrimidine-4-yl)amino)-2-(4-(4-ethylpiperazine-1-yl)piperidine-1-yl)-4-methoxyphenyl) acrylamide]
A (GI50 < 50 nM) | C=CC(=O)Nc1cc(Nc2cc(N3OCC[C@@H]3c3cccc(F)c3F)ncn2)c(OC)cc1N1CCC(N(C)C)CC1 [compound 926, N-(5-((6-((R)-3-(2,3-difluorophenyl)isoxazolidine-2-yl)pyrimidine-4-yl)amino)-2-(4-(dimethylamino)piperidine-1-yl)-4-methoxyphenyl) acrylamide]
A (GI50 < 50 nM) | C=CC(=O)Nc1cc(Nc2cc(N3OCC[C@@H]3c3ccccc3)ncn2)c(OC)cc1N1CCC(N2CCC(N(C)C)CC2)CC1 [compound 740, N-(2-(4-(dimethylamino)-[1,4'-bipiperidine]-1'-yl)-4-methoxy-5-((6-((R)-3-phenylisoxazolidine-2-yl)pyrimidine-4-yl)amino)phenyl)acrylamide]
A (GI50 < 50 nM) | C=CC(=O)Nc1cc(Nc2cc(N3OCC[C@@H]3Cc3cccc(Cl)c3C)ncn2)c(OC)cc1N1CCC(N2C[C@@H]3C[C@H]2CO3)CC1 [compound 1029, N-(2-(4-((1S,4S)-2-oxa-5-azabicyclo [2.2.1]heptane-5-yl)piperidine-1-yl)-5-((6-((S)-3-(3-chloro-2-methylbenzyl)isoxazolidine-2-yl)pyrimidine-4-yl)amino)-4-methoxyphenyl) acrylamide]
A (GI50 < 50 nM) | C=CC(=O)Nc1cc(Nc2cc(N3OCC[C@@H]3c3cccc(Cl)c3)ncn2)c(OC)cc1N1CCOCC1 [compound 467, N-(5-((6-((R)-3-(3-chlorophenyl)isoxazolidine-2-yl)pyrimidine-4-yl)amino)-4-methoxy-2-morpholinophenyl) acrylamide]
A (GI50 < 50 nM) | C=CC(=O)Nc1cc(Nc2cc(N3OCC[C@@H]3c3ccccc3)ncn2)c(OC)cc1N1CCC(N2CC[C@H](N(C)C)C2)CC1 [Example 286, N-(2-(4-((S)-3-(dimethylamino)pyrolidine-1-yl)piperidine-1-yl)-4-methoxy-5-((6-((R)-3-phenylisoxazolidine-2-yl)pyrimidine-4-yl)amino)phenyl) acrylamide]
